Data set [1] relates to U-937. As to the kind of experiment: Growth inhibition of human U937 cells at 50 uM after 72 hrs by MTT assay. Type of data set: functional. Conditions: U-937, 72 h, read-out: GI.
Data set [2] has as its target DNA (cytosine-5)-methyltransferase 1 (Homo sapiens) (UniProt P26358). As to the kind of experiment: Inhibition of DNMT1 (unknown origin) at 100 uM using poly(dI-dC).poly(dI-dC) as substrate preincubated for 15 mins followed by substrate/[3H]-SAM addition measured after 120 mins by liquid scintillation counting analysis.
Data set [3] has as its target DNMT3A2/3L complex (Homo sapiens) (UniProt Q9Y6K1+Q9UJW3). As to the kind of experiment: Inhibition of DNMT3A/3L (unknown origin) at 100 uM using biotinylated DNA oligonucleotides as substrate preincubated for 15 mins followed by substrate/[3H]-SAM addition measured after 4 hrs by liquid scintillation counting analysis. Type of data set: protein-complex assay.
Data set [4] addresses DNMT3B-DNMT3L complex (Homo sapiens) (UniProt Q9UBC3+Q9UJW3). As to the kind of experiment: Inhibition of DNMT3B/3L (unknown origin) at 100 uM using biotinylated DNA oligonucleotides as substrate preincubated for 15 mins followed by substrate/[3H]-SAM addition measured after 4 hrs by liquid scintillation counting analysis. In kind it is protein-complex assay.
In data set [5] the target is Histone deacetylase 1 (Homo sapiens, UniProt Q13547). As to the kind of experiment: Inhibition of HDAC1 (unknown origin) preincubated for 15 mins followed by substrate addition measured after 60 mins by fluorescence assay.
Data set [6] addresses T1, Protein deacetylase HDAC6 (Homo sapiens, UniProt Q9UBN7).
T1 sequence (Q9UBN7 whole entry): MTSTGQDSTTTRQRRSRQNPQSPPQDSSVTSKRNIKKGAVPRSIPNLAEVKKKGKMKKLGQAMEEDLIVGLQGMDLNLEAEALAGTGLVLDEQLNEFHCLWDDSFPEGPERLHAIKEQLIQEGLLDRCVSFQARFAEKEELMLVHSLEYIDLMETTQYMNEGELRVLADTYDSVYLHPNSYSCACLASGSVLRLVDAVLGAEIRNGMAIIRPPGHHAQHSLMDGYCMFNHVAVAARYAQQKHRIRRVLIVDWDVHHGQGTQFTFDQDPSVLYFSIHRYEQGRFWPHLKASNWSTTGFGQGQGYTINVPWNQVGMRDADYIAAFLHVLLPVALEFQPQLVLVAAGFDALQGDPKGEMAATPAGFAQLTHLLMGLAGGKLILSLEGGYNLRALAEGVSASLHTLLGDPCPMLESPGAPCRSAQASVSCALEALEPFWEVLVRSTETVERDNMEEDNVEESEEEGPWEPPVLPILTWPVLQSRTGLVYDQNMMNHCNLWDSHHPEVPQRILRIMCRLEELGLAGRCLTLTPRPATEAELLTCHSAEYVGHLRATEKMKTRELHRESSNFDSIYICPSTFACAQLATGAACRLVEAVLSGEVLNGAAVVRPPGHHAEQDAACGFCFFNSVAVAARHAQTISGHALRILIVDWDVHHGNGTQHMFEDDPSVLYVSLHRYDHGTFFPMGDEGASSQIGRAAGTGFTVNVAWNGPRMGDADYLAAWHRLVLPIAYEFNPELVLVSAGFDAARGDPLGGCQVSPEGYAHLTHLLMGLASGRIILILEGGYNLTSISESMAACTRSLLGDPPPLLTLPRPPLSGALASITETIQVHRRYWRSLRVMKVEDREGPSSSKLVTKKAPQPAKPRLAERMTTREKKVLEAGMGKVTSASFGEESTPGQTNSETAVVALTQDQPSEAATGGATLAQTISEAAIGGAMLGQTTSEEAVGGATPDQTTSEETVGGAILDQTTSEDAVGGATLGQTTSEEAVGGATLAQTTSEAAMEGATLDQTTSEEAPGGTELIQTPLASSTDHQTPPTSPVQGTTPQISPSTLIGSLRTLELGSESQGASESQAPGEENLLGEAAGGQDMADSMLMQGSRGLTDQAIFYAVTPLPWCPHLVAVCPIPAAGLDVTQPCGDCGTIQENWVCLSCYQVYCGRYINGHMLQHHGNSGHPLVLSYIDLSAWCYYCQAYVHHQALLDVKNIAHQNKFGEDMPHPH
As to the kind of experiment: Inhibition of HDAC6 (unknown origin) preincubated for 15 mins followed by substrate addition measured after 60 mins by fluorescence assay.

Data set [7] concerns K562. Nature of the data set: Antiproliferative activity against human K562 cells after 72 hrs by MTT assay. Conditions: K562, 72 h. Type of data set: functional, cell-based.
Data set [8] deals with A549. Nature of the data set: Antiproliferative activity against human A549 cells after 72 hrs by MTT assay. Type of data set: functional, cell-based. To be noted: A549, 72 h.
Data set [9] concerns U-937. Nature of the data set: Antiproliferative activity against human U937 cells after 72 hrs by MTT assay. Type of data set: functional, cell-based. Conditions: U-937, 72 h.
Data set [10] deals with HCT-116. As to the kind of experiment: Antiproliferative activity against human HCT116 cells after 72 hrs by MTT assay. In kind it is functional, cell-based. To be noted: HCT-116, 72 h.
Data set [11] has as its system HepG2. As to the kind of experiment: Antiproliferative activity against human HepG2 cells after 72 hrs by MTT assay. Type of data set: functional, cell-based. Conditions: HepG2, 72 h.
For data set [12], the system named is HeLa. Nature of the data set: Antiproliferative activity against human HeLa cells after 72 hrs by MTT assay. Type of data set: functional, cell-based.
The subject of data set [13] is U-937. As to the kind of experiment: Induction of apoptosis in human U937 cells assessed as viable cells at 0.5 uM after 48 hrs by Annexin V-FITC/PI staining based flow cytometry (reference value: 99.6%). In kind it is functional. To be noted: U-937, 48 h, read-out: Activity.
For data set [14], the system named is U-937. Nature of the data set: Induction of apoptosis in human U937 cells assessed as early apoptotic cells at 0.5 uM after 48 hrs by Annexin V-FITC/PI staining based flow cytometry (reference value: 0.140%). Type of data set: functional.
The subject of data set [15] is U-937. As to the kind of experiment: Induction of apoptosis in human U937 cells assessed as late apoptotic cells at 0.5 uM after 48 hrs by Annexin V-FITC/PI staining based flow cytometry (reference value: 0.279%). Type of data set: functional.
For data set [16], the system named is U-937. As to the kind of experiment: Induction of apoptosis in human U937 cells assessed as necrotic cells at 0.5 uM after 48 hrs by Annexin V-FITC/PI staining based flow cytometry (reference value: 0%). Type of data set: functional.
For data set [17], the system named is U-937. Nature of the data set: Induction of apoptosis in human U937 cells assessed as viable cells at 1 uM after 48 hrs by Annexin V-FITC/PI staining based flow cytometry (reference value: 99.6%). Conditions: U-937, 48 h, read-out: Activity. Type of data set: functional.
In data set [18] the test system is U-937. Nature of the data set: Induction of apoptosis in human U937 cells assessed as early apoptotic cells at 1 uM after 48 hrs by Annexin V-FITC/PI staining based flow cytometry (reference value: 0.140%). Type of data set: functional.
Data set [19] concerns U-937. As to the kind of experiment: Induction of apoptosis in human U937 cells assessed as late apoptotic cells at 1 uM after 48 hrs by Annexin V-FITC/PI staining based flow cytometry (reference value: 0.279%). Type of data set: functional.
The test system of data set [20] is U-937. Nature of the data set: Induction of apoptosis in human U937 cells assessed as necrotic cells at 1 uM after 48 hrs by Annexin V-FITC/PI staining based flow cytometry (reference value: 0%). In kind it is functional.
Data set [21] deals with U-937. Nature of the data set: Induction of apoptosis in human U937 cells assessed as viable cells at 2.5 uM after 48 hrs by Annexin V-FITC/PI staining based flow cytometry (reference value: 99.6%). In kind it is functional. Conditions: U-937, 48 h, read-out: Activity.
Data set [22] concerns U-937. Nature of the data set: Induction of apoptosis in human U937 cells assessed as early apoptotic cells at 2.5 uM after 48 hrs by Annexin V-FITC/PI staining based flow cytometry (reference value: 0.140%). In kind it is functional.
Data set [23] has as its system U-937. As to the kind of experiment: Induction of apoptosis in human U937 cells assessed as late apoptotic cells at 2.5 uM after 48 hrs by Annexin V-FITC/PI staining based flow cytometry (reference value: 0.279%). Type of data set: functional.
The subject of data set [24] is U-937. Nature of the data set: Induction of apoptosis in human U937 cells assessed as necrotic cells at 2.5 uM after 48 hrs by Annexin V-FITC/PI staining based flow cytometry (reference value: 0%). Type of data set: functional.
Data set [25] deals with Salmonella typhimurium. Nature of the data set: Genotoxicity in Salmonella typhimurium TA97 at 50 times IC50 by Ames test. In kind it is toxicity. Conditions: salmonella enterica subsp. enterica serovar typhimurium.
In data set [26] the test system is Salmonella typhimurium. As to the kind of experiment: Genotoxicity in Salmonella typhimurium TA98 at 50 times IC50 by Ames test. Type of data set: toxicity. To be noted: salmonella enterica subsp. enterica serovar typhimurium.
Data set [27] deals with Salmonella typhimurium. Nature of the data set: Genotoxicity in Salmonella typhimurium TA102 at 50 times IC50 by Ames test. In kind it is toxicity. Conditions: salmonella enterica subsp. enterica serovar typhimurium.
Data set [28] has as its system Salmonella typhimurium. Nature of the data set: Genotoxicity in Salmonella typhimurium TA1535 at 50 times IC50 by Ames test. In kind it is toxicity. To be noted: salmonella enterica subsp. enterica serovar typhimurium.

DNMT3A2/3L complex (Homo sapiens), sequence (Q9UJW3 whole entry, looked up): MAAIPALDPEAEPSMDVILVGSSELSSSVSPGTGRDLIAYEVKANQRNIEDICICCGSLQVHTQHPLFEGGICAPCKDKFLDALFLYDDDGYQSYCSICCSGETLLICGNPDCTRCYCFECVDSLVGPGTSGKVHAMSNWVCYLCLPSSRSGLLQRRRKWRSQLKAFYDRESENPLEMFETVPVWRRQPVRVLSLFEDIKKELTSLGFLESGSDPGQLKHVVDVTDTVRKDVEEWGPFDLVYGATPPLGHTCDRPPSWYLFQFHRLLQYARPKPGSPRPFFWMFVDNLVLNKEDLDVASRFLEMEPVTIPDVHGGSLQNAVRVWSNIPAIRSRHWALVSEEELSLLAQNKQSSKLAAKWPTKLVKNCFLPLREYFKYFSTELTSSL
DNMT3A2/3L complex (Homo sapiens), sequence (Q9Y6K1 whole entry, looked up): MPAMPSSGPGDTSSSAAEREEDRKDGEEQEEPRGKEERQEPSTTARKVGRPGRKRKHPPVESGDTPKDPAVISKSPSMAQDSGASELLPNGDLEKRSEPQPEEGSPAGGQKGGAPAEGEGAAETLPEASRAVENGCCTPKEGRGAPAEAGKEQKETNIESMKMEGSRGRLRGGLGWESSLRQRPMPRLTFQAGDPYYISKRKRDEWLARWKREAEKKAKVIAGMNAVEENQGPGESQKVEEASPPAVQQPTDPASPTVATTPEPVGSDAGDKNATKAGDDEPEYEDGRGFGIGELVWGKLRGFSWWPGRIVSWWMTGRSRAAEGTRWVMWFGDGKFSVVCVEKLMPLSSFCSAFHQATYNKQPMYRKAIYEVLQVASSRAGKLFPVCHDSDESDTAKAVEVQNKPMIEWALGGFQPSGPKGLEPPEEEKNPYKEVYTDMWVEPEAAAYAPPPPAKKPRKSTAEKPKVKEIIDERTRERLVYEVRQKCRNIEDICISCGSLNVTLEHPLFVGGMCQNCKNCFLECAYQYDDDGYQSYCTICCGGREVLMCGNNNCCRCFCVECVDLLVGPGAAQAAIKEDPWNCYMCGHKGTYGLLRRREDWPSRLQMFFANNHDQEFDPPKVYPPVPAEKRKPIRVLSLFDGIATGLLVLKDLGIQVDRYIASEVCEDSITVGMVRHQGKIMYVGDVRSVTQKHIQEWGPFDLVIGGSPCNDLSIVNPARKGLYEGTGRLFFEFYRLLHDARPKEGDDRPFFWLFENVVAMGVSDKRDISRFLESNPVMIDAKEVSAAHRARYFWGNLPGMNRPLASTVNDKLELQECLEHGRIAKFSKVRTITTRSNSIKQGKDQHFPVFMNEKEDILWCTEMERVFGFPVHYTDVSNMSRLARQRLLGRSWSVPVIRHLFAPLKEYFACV
DNMT3B-DNMT3L complex (Homo sapiens), sequence (Q9UJW3 whole entry, looked up, other chains not shown): as the sequence (Q9UJW3 whole entry, looked up) above
DNA (cytosine-5)-methyltransferase 1 (Homo sapiens), sequence (P26358 whole entry): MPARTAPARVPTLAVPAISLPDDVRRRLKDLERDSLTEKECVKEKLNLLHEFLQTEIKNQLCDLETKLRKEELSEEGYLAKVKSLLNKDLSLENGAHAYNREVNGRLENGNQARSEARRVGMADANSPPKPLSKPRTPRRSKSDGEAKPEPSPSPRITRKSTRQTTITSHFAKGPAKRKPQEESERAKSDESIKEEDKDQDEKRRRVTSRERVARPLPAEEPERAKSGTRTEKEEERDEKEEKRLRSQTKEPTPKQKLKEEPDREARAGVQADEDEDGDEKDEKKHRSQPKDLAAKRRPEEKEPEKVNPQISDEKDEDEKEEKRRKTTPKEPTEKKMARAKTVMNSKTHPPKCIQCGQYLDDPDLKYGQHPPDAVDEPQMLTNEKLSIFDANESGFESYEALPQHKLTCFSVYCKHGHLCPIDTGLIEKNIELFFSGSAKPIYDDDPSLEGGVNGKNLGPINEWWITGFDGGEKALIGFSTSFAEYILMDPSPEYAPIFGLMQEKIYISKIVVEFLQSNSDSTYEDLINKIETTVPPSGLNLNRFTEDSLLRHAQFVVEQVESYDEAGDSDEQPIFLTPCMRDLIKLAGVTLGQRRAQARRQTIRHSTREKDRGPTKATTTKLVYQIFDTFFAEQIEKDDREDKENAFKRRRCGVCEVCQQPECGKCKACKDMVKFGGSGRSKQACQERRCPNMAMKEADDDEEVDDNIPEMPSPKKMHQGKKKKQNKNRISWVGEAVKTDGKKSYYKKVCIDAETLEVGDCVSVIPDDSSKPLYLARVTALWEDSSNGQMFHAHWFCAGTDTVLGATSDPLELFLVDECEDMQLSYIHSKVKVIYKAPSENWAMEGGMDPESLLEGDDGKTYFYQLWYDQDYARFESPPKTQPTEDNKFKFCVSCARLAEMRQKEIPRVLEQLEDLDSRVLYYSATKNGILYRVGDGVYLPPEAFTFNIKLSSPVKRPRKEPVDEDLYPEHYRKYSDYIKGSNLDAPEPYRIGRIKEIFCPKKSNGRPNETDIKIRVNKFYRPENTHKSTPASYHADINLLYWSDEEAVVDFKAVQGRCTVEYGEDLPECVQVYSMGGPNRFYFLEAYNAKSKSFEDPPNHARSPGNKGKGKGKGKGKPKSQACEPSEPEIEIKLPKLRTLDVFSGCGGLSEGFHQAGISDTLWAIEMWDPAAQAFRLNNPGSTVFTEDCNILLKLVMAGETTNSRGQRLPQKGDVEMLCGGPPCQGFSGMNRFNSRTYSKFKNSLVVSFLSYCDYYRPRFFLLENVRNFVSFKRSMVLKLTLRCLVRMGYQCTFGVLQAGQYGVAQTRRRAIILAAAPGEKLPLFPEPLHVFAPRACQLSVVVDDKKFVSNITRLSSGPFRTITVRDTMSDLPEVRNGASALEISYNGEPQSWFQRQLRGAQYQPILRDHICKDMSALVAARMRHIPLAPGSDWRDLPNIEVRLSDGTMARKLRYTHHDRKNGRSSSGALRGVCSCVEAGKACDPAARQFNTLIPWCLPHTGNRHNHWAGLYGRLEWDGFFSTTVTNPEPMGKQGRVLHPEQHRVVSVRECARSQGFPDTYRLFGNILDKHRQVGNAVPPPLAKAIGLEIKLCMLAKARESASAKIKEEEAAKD
Histone deacetylase 1, sequence (Q13547 whole entry): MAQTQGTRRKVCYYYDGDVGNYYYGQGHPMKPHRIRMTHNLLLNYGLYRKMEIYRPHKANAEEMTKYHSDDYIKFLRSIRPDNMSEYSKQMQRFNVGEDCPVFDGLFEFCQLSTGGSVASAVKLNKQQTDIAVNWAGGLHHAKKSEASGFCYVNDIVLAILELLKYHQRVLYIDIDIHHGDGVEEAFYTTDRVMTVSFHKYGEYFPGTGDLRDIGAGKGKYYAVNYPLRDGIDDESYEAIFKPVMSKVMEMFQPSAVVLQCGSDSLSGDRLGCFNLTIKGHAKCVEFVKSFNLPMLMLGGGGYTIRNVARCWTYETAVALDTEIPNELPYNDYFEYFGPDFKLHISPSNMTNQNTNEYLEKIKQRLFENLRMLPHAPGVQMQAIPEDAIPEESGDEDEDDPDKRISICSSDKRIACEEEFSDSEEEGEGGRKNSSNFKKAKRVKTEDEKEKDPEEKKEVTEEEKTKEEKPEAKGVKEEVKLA

As for `O=C(/C=C/c1ccc(CCNC(=O)c2ccc3[nH]cnc3c2)cc1)NO`, the inhibition of growth at 50 µM in data set [1] is 45%. Also, the inhibition was 47 to 47.4% in data set [2], 41 to 41.2% in [3] and 30.8% in [4]. For the same molecule, the IC50 was found to be 0.0078 µM in data set [5], 0.00468 µM in data set [6] and 31.7 µM in data set [7].
`COc1ccc(Cl)cc1C(=O)NCCc1ccc(/C=C/C(=O)NO)cc1`: the IC50 worked out at 12.5 µM in [8]; 0.0192 µM in [5]; 0.012 µM in data set [6]; 2.75 µM in data set [7]; 0.19 µM in [9]; 5.39 µM in data set [10]. For the same molecule, the figures for the IC50 in data set [11] and in data set [12] were 5.43 µM and 10.6 µM, respectively. Besides, the inhibition is 39.8 to 40% in [2], 3.98% in [3] and 10.6% in data set [4]. Besides, the viability at 0.5 µM in [13] came out at 84%. The Activity came out at 6.9% in data set [14]; 9.11% in [15]; 0.02% in [16]; 10.1% in data set [18]; 36.4% in data set [19]; 0.942% in [20]. Besides, the Activity in [22] was 41.8%; in data set [23] it was 57.8%; in [24] it was 0.02%; in [25], “Non-Toxic”; in data set [26], “Non-Toxic”; in data set [27], “Non-Toxic”. In data set [28], the Activity entry is reported as “Non-Toxic”. In addition, the viability at 1 µM in [17] was 52.8%. In [21], the viability at 2.5 µM amounted to 0.365%.

These data come from ChEMBL document CHEMBL4033641, “Design, synthesis and anticancer potential of NSC-319745 hydroxamic acid derivatives as DNMT and HDAC inhibitors” (Eur J Med Chem, 2017).
